Patent US20240108629A1, “AZAQUINAZOLINE DERIVATIVES FOR USE IN TREATING OR PREVENTING DIROFILARIA INFECTION IN A MAMMAL” (Liverpool School of Tropical Medicine, priority 2021, published 2024)

What was measured:
[1] = test system: D. immitis L3-L4 larval Wolbachia in NSG mice; experiment: In vivo D. immitis larvae mouse assay (Example 3B); conditions: for n larvae depleted ≥50% (number/total) / n larvae depleted ≥50% (percentage of larvae): oral 200 mpk bid x 1; for D. immitis L4 Efficacy (median % reduction Wolbachia): oral 200 mpk bid x 1 (single day dosing), larvae retrieved 2 weeks after infection
D. immitis L4 Wolbachia = experiment: In vitro D. immitis L4 larvae assay (Wolbachia wsp copy number by qPCR); format: cell-based; conditions: for D. immitis L4 Efficacy (median % reduction Wolbachia): six-day continuous exposure in vitro
D. immitis mf Wolbachia = experiment: In vitro D. immitis microfilariae assay (Wolbachia wsp copy number by qPCR); format: cell-based; conditions: six-day continuous exposure in vitro
[2] = test system: D. immitis L3-L4 larval Wolbachia in NSG mice; experiment: In vivo D. immitis larvae mouse assay (Example 3A); conditions: for D. immitis L4 Efficacy (median % reduction Wolbachia): larvae retrieved 2 weeks after infection

FC(F)(F)OC1CCN(c2nc(NCc3cccnc3C(F)(F)F)c3cccnc3n2)CC1 [Compound D, 2-(4-(trifluoromethoxy)piperidin-1-yl)-N-((2-(trifluoromethyl)pyridin-3-yl)methyl)pyrido[2,3-d]pyrimidin-4-amine]
n larvae depleted ≥50% (number/total) [1]: 8/12
n larvae depleted ≥50% (percentage of larvae) [1]: (67%)
D. immitis L4 Efficacy (median % reduction Wolbachia) [1]: 53.6%

CC1(C)CCN(c2nc(NCc3cccnc3C(F)(F)F)c3cccnc3n2)CC1 [Compound B, 2-(4,4-dimethylpiperidin-1-yl)-N-((2-(trifluoromethyl)pyridin-3-yl)methyl)pyrido[2,3-d]pyrimidin-4-amine]
D. immitis L4 Efficacy (median % reduction Wolbachia) (D. immitis L4 Wolbachia; 1 nM): 45.4%
D. immitis L4 Efficacy (median % reduction Wolbachia) (D. immitis L4 Wolbachia; 10 nM): 50.7%
D. immitis L4 Efficacy (median % reduction Wolbachia) (D. immitis L4 Wolbachia; 50 nM): 57.4%
Wolbachia depletion in D. immitis L4 (D. immitis L4 Wolbachia; doses between 50-10 nM, in vitro): > 50%
D. immitis mf Efficacy (median % reduction Wolbachia) (D. immitis mf Wolbachia; 0.5 nM): 63.9%
D. immitis mf Efficacy (median % reduction Wolbachia) (D. immitis mf Wolbachia; 50 nM): 53.6%

C[C@H]1c2cccc(O)c2C(=O)C2=C(O)[C@]3(O)C(=O)C(C(N)=O)=C(O)[C@@H](N(C)C)[C@@H]3[C@@H](O)[C@@H]21 [Doxycycline, doxycycline, reference compound]
n larvae depleted ≥80% (number/total) ([2]; oral 50 mpk qd x 7): 4/9
n larvae depleted ≥80% (percentage of larvae) ([2]; oral 50 mpk qd x 7): (44.4%)
D. immitis L4 Efficacy (median % reduction Wolbachia) ([2]; oral 50 mpk qd x 7 (days 1-7 post-infection)): 69.6%
D. immitis L4 Efficacy (median % reduction Wolbachia) (D. immitis L4 Wolbachia; 5000 nM): 65.9%
D. immitis mf Efficacy (median % reduction Wolbachia) (D. immitis mf Wolbachia; 50 nM): 10.0%
D. immitis mf Efficacy (median % reduction Wolbachia) (D. immitis mf Wolbachia; 5000 nM): 58.8%

FC1(F)CCN(c2nc(NCc3ccccc3C(F)(F)F)c3cccnc3n2)CC1 [Compound C, 2-(4,4-difluoropiperidin-1-yl)-N-(2-(trifluoromethyl)benzyl)pyrido[2,3-d]pyrimidin-4-amine]
n larvae depleted ≥50% (number/total) [1]: 2/3
n larvae depleted ≥50% (percentage of larvae) [1]: (67%)
D. immitis L4 Efficacy (median % reduction Wolbachia) [1]: 61.7%

C[C@H]1COCCN1c1nc(NCc2cccnc2C(F)(F)F)c2cccnc2n1 [Compound A, (S)-2-(3-methylmorpholino)-N-((2-(trifluoromethyl)pyridin-3-yl)methyl)pyrido[2,3-d]pyrimidin-4-amine]
n larvae depleted ≥50% (number/total) [1]: 4/5
n larvae depleted ≥50% (percentage of larvae) [1]: (80%)
D. immitis L4 Efficacy (median % reduction Wolbachia) ([1]; 200 mg/kg): 52.1%
n larvae depleted ≥80% (number/total) ([2]; oral 200 mpk bid x 2): 10/11
n larvae depleted ≥80% (percentage of larvae) ([2]; oral 200 mpk bid x 2): (90.9%)
D. immitis L4 Efficacy (median % reduction Wolbachia) ([2]; oral 200 mpk bid x 2 (days 1-2), 200 mg/kg): 89.7%
D. immitis mf Efficacy (median % reduction Wolbachia) (D. immitis mf Wolbachia; 50 nM): 64.1%
D. immitis mf Efficacy (median % reduction Wolbachia) (D. immitis mf Wolbachia; 200 nM): 88.8%
D. immitis mf Efficacy (median % reduction Wolbachia) (D. immitis mf Wolbachia; 5000 nM): 96.0%
